We go through 2 molecules from PMC4012454 (Marine Drugs, 2014).

Molecules are shown by their SMILES.

One series concerns sheep. To be noted: in vivo; cited from earlier work.
The target of the next series is brevenal receptor. The format is binding.
The target in series [1] is brevetoxin receptor (site five of voltage gated sodium channels). The format is binding.

Regarding `C=C/C=C\CC[C@H]1O[C@H]2CC[C@@]3(C)O[C@H]4[C@@H](O)C[C@@]5(C)O[C@@H](CC/C=C(C)/C(C)=C/C=O)[C@@H](C)C[C@H]5O[C@@H]4C[C@@H]3O[C@@H]2CC[C@@]1(C)O` [Compound 3, brevenal], the “bronchoconstriction (effect on RL)” value in the series on sheep was “no effects observed”. Moreover, the results for the Ki (on brevenal receptor; in series [1]) were 137 ± 16 nM and 1130 ± 153 nM, respectively.

In the case of `C=C(C=O)C[C@@H]1C[C@H](O)[C@]2(C)O[C@@H]3C[C@@H]4O[C@@H]5C[C@]6(C)O[C@]7(C)CC[C@@H]8O[C@@H]9C[C@]%10(C)O[C@@H]%11C(C)=CC(=O)O[C@H]%11C[C@H]%10O[C@H]9C[C@@H](C)[C@H]8O[C@H]7C[C@H]6O[C@H]5C/C=C\[C@H]4O[C@H]3C[C@H]2O1` [brevetoxin, PbTx-2], the “increase in RL (pulmonary resistance)” value in the series with sheep is 221% ± 21%.
